Assay results from patent US20220031684A1, “PROPHYLACTIC EFFICACY OF SEROTONIN 4 RECEPTOR AGONISTS AGAINST STRESS” (THE TRUSTEES OF COLUMBIA UNIVERSITY IN THE CITY OF NEW YORK, priority 2019, published 2022).
Structures can show the parent of a compound that is named as a salt.

What was measured:
[1] = Chronic corticosterone (CORT) model: body weight; assay type: in vivo, mice; settings: male C57BL/6NTac; Flx 18 mg/kg/day in drinking water or RS-67,333 1.5 mg/kg/day in osmotic minipumps for 3 weeks prior to CORT
Procedure: This chronic CORT elevation dysregulates the hypothalamic-pituitary-adrenal axis (HPA) in a manner similar to that observed in clinical depression. The dose and duration of CORT treatment was selected based on previous studies. CORT (35 μg/ml, equivalent to about 5 mg/kg/day) dissolved in 0.45% hydroxypropyl-o-cyclodextrin (0-CD) or vehicle (VEH) (0.45% j-CD) was available ad libitum in the drinking water in opaque bottles to protect it from light. VEH- and CORT-treated water was changed every 3 days to prevent possible degradation. Contextual Fear Conditioning (CFC): A 3-shock CFC procedure was administered as previously published. Briefly, mice were placed into context A and administered 3 2-s shocks (0.75 mA) at 180 s, 240 s or 300 s following placement into context A. Mice were removed from the context 15 s following the termination of shock (at 317 s). For context retrieval, mice were placed back into context A for 300 s. Electrophysiology: Electrophysiology was conducted as previously described. Statistical Analysis: Results from data analyses are expressed as means±SEM. Alpha was set to 0.05 for all analyses. Data were analyzed using GraphPad Prism v7.0 or v8.0. For all experiments, unless otherwise noted, one- or two-way ANOVAs with repeated-measures were applied to the data as appropriate. […] Videos were scored using ANY-maze behavior tracking software (Stoelting, Wood Dale, Ill.). […]

C57BL/6NTac mice = experiment: Elevated plus maze (EPM) in CORT model; assay type: in vivo; settings: male C57BL/6NTac, Flx 18 mg/kg/day or RS-67,333 1.5 mg/kg/day for 3 weeks prior to CORT
Procedure: This chronic CORT elevation dysregulates the hypothalamic-pituitary-adrenal axis (HPA) in a manner similar to that observed in clinical depression. The dose and duration of CORT treatment was selected based on previous studies. CORT (35 μg/ml, equivalent to about 5 mg/kg/day) dissolved in 0.45% hydroxypropyl-o-cyclodextrin (0-CD) or vehicle (VEH) (0.45% j-CD) was available ad libitum in the drinking water in opaque bottles to protect it from light. VEH- and CORT-treated water was changed every 3 days to prevent possible degradation. Contextual Fear Conditioning (CFC): A 3-shock CFC procedure was administered as previously published. Briefly, mice were placed into context A and administered 3 2-s shocks (0.75 mA) at 180 s, 240 s or 300 s following placement into context A. Mice were removed from the context 15 s following the termination of shock (at 317 s). For context retrieval, mice were placed back into context A for 300 s. Electrophysiology: Electrophysiology was conducted as previously described. Statistical Analysis: Results from data analyses are expressed as means±SEM. Alpha was set to 0.05 for all analyses. Data were analyzed using GraphPad Prism v7.0 or v8.0. For all experiments, unless otherwise noted, one- or two-way ANOVAs with repeated-measures were applied to the data as appropriate. Significant main effects and/or interactions were followed by Fisher's PLSD post hoc analysis or unpaired t-tests. Drugs: All drugs were prepared in physiological saline and all injections were administered intraperitoneally (i.p.) in volumes of 0.1 cc per […] body weight unless otherwise noted. Fluoxetine hydrochloride (Flx): Flx (BioTrend Chemicals AG, BG197, Zurich, Germany) was administered in the drinking water (18 mg/kg/day) for 3 weeks before the start of CORT. […] (R,S)-ketamine (K): (R,S)-ketamine (Ketaset III, Ketamine HCl injection, Fort Dodge Animal Health, Fort Dodge, Iowa) was administered in a single dose at 30 mg/kg of body weight 1 week before the start of CFC. […] PF-04995274: PF-04995274 (Sigma, Catalog No. 1331782-27-4, St. Louis, Mo.) was administered a single dose at 3 or 10 mg/kg of body weight 1 week before the start of CFC. PF-04995274 was dissolved in saline using an ultrasonic homogenizer (BioLogics, Model 3000, Manassas, Va.). Osmotic minipump implantation: ALZET osmotic minipumps (Model 2004, […], 28 days) were implanted subcutaneously under isoflurane anesthesia as previously described [S2]. Osmotic minipumps were rotated under the skin two to three times per week. Behavioral Assays: All experiments were approved by the Institutional Animal Care and Use Committee (IACUC) at the New York Psychiatric Institute (NYSPI). […] Videos were scored using ANY-maze behavior tracking software (Stoelting, Wood Dale, Ill.). […]

BALB/cJRj mice [2] = experiment: Elevated plus maze (EPM), acute anxiolytic-like effect; assay type: in vivo; settings: acute systemic administration; fluoxetine 18 mg/kg i.p.
Procedure: (§1) RS67333 (1.5 mg/kg, i.p.), diazepam (1.5 mg/kg, i.p.), fluoxetine (18 mg/kg, i.p.) were injected 45 min before testing in the Elevated Plus Maze (EPM), the Novelty Suppressed Feeding (NSF) or the Open Field (OF) in three independent cohorts of male BALB/cJRj mice.
(§2) To ensure the selectivity of the anxiolytic-like effects of RS67333, in a new cohort of male BALB/cJRj mice, GR125487 (1.0 mg/kg, i.p.) dissolved in 0.9% NaCl solution, was injected 15 minutes before RS67333 administration (1.5 mg/kg, i.p.). EPM or NSF occurred 45 min after RS67333 administration (A-S1). Behavioral consequences of the co-administration of GR125487+RS67333 were compared to RS67333 alone, diazepam (1.5 mg/kg, i.p.) fluoxetine (18 mg/kg, i.p.) and vehicle groups (0.9% saline solution, i.p.).
(§3) For mPFC drug infusion, two bilateral cannulae (75 μm-diameter silica capillary tubing inserted in 27G stainless steel catheter) were implanted in the mPFC [stereotaxic coordinates in mm from bregma: A=+2.10, L=±0.50, V=−2.60, A, anterior; L, lateral; and V, ventral, according to (A-S10)] under anesthesia (chloral hydrate, 400 mg/kg, i.p.). […] Diazepam (1.5 mg/kg) was used as a positive control.
In a new cohort of male BALB/cJRj mice, p-CPA was administered twice daily (at 0900 and 1700 h) for 3 consecutive days. RS67333 ([…]) and diazepam ([…]) were then intra-mPFC administered 24 h after the final p-CPA administration and behavioral test (EPM) occurred 45 minutes after local infusion.
The EPM is a widely used behavioral assay for rodents and it has been validated to assess the anti-anxiety effects of pharmacological agents (A-S11). This test was performed as described by (A-S1). The maze is a plus-cross-shaped apparatus, with two open arms and two arms closed by walls linked by a central platform 50 cm above the floor. Mice were individually put in the center of the maze facing an open arm and were allowed to explore the maze during 5 min for the behavioral consequences of an acute systemic administration or mPFC infusion and during 6 min for the optogenetic experiments. The time spent in and the numbers of entries into the open arms were used as an anxiety index. All parameters were measured using a videotracker (EPM3C, Bioseb, Vitrolles, France).

BALB/cJRj mice [3] = experiment: Novelty suppressed feeding (NSF), acute anxiolytic-like effect; assay type: in vivo; settings: male BALB/cJRj; i.p. 45 min before testing; RS67333 1.5, diazepam 1.5, fluoxetine 18 mg/kg
Procedure: as §1, §2, §3
The NSF is a conflict test that elicits competing motivations: the drive to eat and the fear of venturing into the center of a brightly lit arena. The latency to begin eating is used as an index of anxiety/depression-like behavior, because classical anxiolytic drugs as well as chronic antidepressants decrease this measure. The NSF test was carried out during a 10 min period as previously described (A-S12). Briefly, the testing apparatus consisted of a plastic box (50×50×20 cm), the floor of which was covered with approximately 2 cm of wooden bedding. Twenty-four hours prior to behavioral testing, all food was removed from the home cage. At the time of testing, a single pellet of food (regular chow) was placed on a white paper platform positioned in the center of the box. Each animal was placed in a corner of the box, and a stopwatch was immediately started. The latency to eat (defined as the mouse sitting on its haunches and biting the pellet with the use of forepaws) was timed. Immediately afterwards, the animal was transferred to its home cage, and the amount of food consumed by the mouse in the subsequent 5 min was measured, serving as a control for change in appetite as a possible confounding factor.

CNCCC(Oc1ccc(C(F)(F)F)cc1)c1ccccc1 (centres unmarked) [fluoxetine, Fluoxetine hydrochloride]
CORT-induced increase in body weight [1]: attenuated
time spent in the open arms of the EPM vs VEH+Veh (C57BL/6NTac mice): did not alter
entries into the open arms of the EPM vs CORT+Veh (C57BL/6NTac mice; listed as Flx, hydrochloride): significantly more entries
anxiety-like behavior (BALB/cJRj mice [2]): did not affect anxiety-like behavior
latency to feed (NSF) vs vehicle (BALB/cJRj mice [3]): anxiogenic-like effect
